Reference: ChEMBL document CHEMBL1201862, “PubChem BioAssay data set” (2004)
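Tested at 5 concentrations; 48 h exposure; 96-well plates; endpoints linearly interpolated, else capped at highest concentration. The concentration for 50% growth inhibition is given as GI50.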 Calls of active or inactive are those of the source. Rule as the data show it: active = GI50 up to about 1.1 µM and inactive = higher.

What was measured:
Assay in all cases: DTP human tumour cell line panel, 48 h
[1] = test system: OVCAR-3
[2] = test system: SF-268
[3] = test system: UACC-62
[4] = test system: NCI-H226
[5] = test system: SNB-19
[6] = test system: SK-OV-3
[7] = test system: HOP-92
[8] = test system: DU-145
[9] = test system: TK-10
[10] = test system: UACC-257
[11] = test system: K562
[12] = test system: MCF7
[13] = test system: EKVX
[14] = test system: KM12
[15] = test system: SW-620
[16] = test system: BT-549
[17] = test system: Hs-578T
[18] = test system: SK-MEL-5
[19] = test system: OVCAR-5
[20] = test system: PC-3

Measured: GI50

O=C(O)c1c(-c2c3ccc(=O)cc-3oc3cc(O)ccc23)cc2ccccc2c1-c1ccccc1
inactive: [1] > 100 µM | [2] > 100 µM | [3] > 100 µM | [4] > 100 µM | [5] > 100 µM | [6] > 100 µM | [7] > 100 µM | [8] > 100 µM | [9] > 36.6 µM | [10] > 100 µM | [11] 4.51 µM | [12] > 100 µM | [13] > 100 µM | [14] > 100 µM | [15] > 100 µM | [16] > 100 µM | [17] > 100 µM | [18] > 100 µM | [19] > 100 µM | [20] > 100 µM

COC1(OC)C2(Cl)C(Cl)=C(Cl)C1(Cl)C1c3ccc(C(C)=O)c4cccc(c34)C12 (stereo not given)
inactive: [1] 26.3 µM | [2] 61.1 µM | [3] 23.5 µM | [4] 17 µM | [5] > 59 µM | [6] 52.1 µM | [7] 2.89 µM | [8] 26.2 µM | [9] 71 µM | [10] 25.6 µM | [11] 6.38 µM | [12] 5.5 µM | [13] 41.6 µM | [14] 11.7 µM | [15] > 53.6 µM | [16] 47.6 µM | [17] > 100 µM | [18] 10.4 µM | [19] 28.6 µM | [20] 14.2 µM

O=c1c(-c2nc3ccccc3c3ccccc3c2=O)nc2ccccc2c2ccccc12
inactive: [1] 28.4 µM | [2] 41 µM | [3] 30.2 µM | [4] > 100 µM | [5] 30.3 µM | [6] > 100 µM | [7] 37.1 µM | [8] 80.9 µM | [9] 48.4 µM | [10] 33.8 µM | [11] 32.9 µM | [12] 38 µM | [13] 50.1 µM | [14] 38.3 µM | [15] 33.7 µM | [16] 47.1 µM | [17] 51.4 µM | [18] 24.8 µM | [19] 80.4 µM | [20] 27.7 µM

CCOC(=O)/C=C(\C(=O)OCC)n1ccc(=O)[nH]c1=O
inactive: [1] 13.2 µM | [2] 20 µM | [3] 16.4 µM | [4] 13.3 µM | [5] 52.2 µM | [6] 22.4 µM | [7] 2.55 µM | [8] 31.4 µM | [9] 13.3 µM | [10] 4.72 µM | [11] 4.38 µM | [12] 9.2 µM | [13] 16 µM | [14] 17.9 µM | [15] 2.64 µM | [16] 16.7 µM | [17] 29.4 µM | [18] 24.7 µM | [19] 19.7 µM | [20] 16.9 µM
